In patent US4582821A, “Inhibition of cyclic nucleotide independent protein kinases” (E. I. Du Pont de Nemours and Company, priority 1983, dated 1986):

Key:
[1] = test system: lymphoma cell line MOLT-4; assay: Tumor cell line growth inhibition, MOLT-4; format: cell-based
Procedure: In this series of experiments, the tumor cell growth inhibitory capacity of various peptide halomethyl ketones was tested against lymphoma cell lines YAC-1 and MOLT-4, and against an erythroleukemia cell line, K-562. The lymphoma cell line YAC-1 is described by Kiessling, et al., Eur. J. Immunol. 5:112 (1975), and MOLT-4 is described by Minowada, et al., J. Natl. Cancer Inst. 49:891 (1972) and Nilsson, et al., Int. J. Cancer 15:321 (1975). The erythroleukemia cell line K-562 is described by Lozzio, et al., Leuk. Res. 3:363 (1979). In these experiments, cells were grown on standard media as 10 mL suspension cultures. Initial cell density was 10^5 cells/mL. At day 0, test compounds were introduced in ethanol; control cultures received an equal volume of ethanol. Cells were counted at the times indicated.

A-431 cell EGF receptor = target: T1, A-431 cell EGF receptor (Homo sapiens, UniProt P00533); assay: Protein phosphorylation of A-431 cell membrane EGF receptors (intact membranes, EGF present); format: biochemical; settings: 600 nmoles/mg protein, intact A-431 membranes
T1 construct: intact A-431 cell membranes were employed, rather than solubilized extracts; endogenous in cells; host or cells: A-431 human epidermoid carcinoma cells (plasma membranes)
Outline: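 Intact A-431 membranes with 1 mM ouabain, 20 mM Hepes pH 7.4, 1 mM MnCl2 and 100 ng EGF, preincubated with peptide halomethyl ketones (ethanol vehicle) ~23° for 10 min, then 10 min at 0°. Phosphorylation started with 15 μM [γ-32P]ATP, run 6 min at 0°; TCA-precipitated radioactivity counted by scintillation.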

[2] = test system: A-431 plasma membrane extracts (EGF-mediated protein phosphorylation); assay: Protein phosphorylation in solubilized A-431 plasma membrane extracts, with or without EGF; format: biochemical, human
Outline: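 Triton X-100-solubilized A-431 plasma membranes (15-150 μg protein) in 20 mM Hepes pH 7.4 with 1 mM MnCl2, ± 100 ng EGF, preincubated with compound 10 min at ~23°, then 10 min at 0°. Phosphorylation started with 15 μM [γ-32P]ATP, stopped after 3 min at 0°; TCA-precipitated radioactivity counted.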

T1 sequence (P00533 25-1210): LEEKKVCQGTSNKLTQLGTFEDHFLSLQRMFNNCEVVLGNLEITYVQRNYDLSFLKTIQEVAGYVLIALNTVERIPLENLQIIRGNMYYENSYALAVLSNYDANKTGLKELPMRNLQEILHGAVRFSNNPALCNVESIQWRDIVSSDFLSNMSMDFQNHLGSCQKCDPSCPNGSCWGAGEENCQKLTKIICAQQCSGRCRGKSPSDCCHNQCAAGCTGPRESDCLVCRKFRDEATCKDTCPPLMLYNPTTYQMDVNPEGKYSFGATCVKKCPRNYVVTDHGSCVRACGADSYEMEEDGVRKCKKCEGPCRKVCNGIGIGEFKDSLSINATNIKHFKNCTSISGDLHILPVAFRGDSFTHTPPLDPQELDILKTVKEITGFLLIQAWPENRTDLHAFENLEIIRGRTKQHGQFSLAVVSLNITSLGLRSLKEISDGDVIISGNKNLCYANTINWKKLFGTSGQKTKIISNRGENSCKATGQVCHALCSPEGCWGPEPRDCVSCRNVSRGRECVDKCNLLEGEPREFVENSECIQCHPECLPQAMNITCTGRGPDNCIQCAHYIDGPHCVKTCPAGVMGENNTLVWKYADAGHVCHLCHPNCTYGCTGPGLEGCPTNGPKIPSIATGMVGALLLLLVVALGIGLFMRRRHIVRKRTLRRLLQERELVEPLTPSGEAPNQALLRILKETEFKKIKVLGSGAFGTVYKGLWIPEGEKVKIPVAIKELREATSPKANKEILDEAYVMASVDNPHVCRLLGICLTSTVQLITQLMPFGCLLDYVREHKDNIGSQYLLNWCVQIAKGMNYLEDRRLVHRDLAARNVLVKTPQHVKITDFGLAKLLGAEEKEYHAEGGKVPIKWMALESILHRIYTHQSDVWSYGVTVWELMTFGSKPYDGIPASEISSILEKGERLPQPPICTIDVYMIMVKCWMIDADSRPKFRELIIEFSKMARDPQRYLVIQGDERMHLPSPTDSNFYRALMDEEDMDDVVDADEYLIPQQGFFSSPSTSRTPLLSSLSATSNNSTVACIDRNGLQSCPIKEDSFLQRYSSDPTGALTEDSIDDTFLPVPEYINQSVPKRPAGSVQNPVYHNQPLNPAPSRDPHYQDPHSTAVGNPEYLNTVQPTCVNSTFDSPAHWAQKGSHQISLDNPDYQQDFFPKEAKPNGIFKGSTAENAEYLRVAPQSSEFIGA

SMILES: CC(C)CC(NC(=O)OC(C)(C)C)C(=O)CBr (stereo not drawn) [Boc-LeuCH2 Br]
- % Growth Relative to Control Cultures ([1]; 0.4 μg/mL, day 2): 66%
- % Growth Relative to Control Cultures ([1]; 0.4 μg/mL, day 3): 84%
- % Growth Relative to Control Cultures ([1]; 0.4 μg/mL, day 4): 67%
- % Growth Relative to Control Cultures ([1]; 2.0 μg/mL, day 2): 29%
- % Growth Relative to Control Cultures ([1]; 2.0 μg/mL, day 3): 31%
- % Growth Relative to Control Cultures ([1]; 2.0 μg/mL, day 4): 21%
- % Growth Relative to Control Cultures ([1]; 2.0 μg/mL, day 7): 74%
- % Growth Relative to Control Cultures ([1]; 10. μg/mL, day 1): 49%
- % Growth Relative to Control Cultures ([1]; 10. μg/mL, day 2): 16%
- % Growth Relative to Control Cultures ([1]; 10. μg/mL, day 3): 14%
- % Growth Relative to Control Cultures ([1]; 10. μg/mL, day 4): 9%
- % Growth Relative to Control Cultures ([1]; 10. μg/mL, day 7): 14%
- % inhibition (A-431 cell EGF receptor): 29%
- % inhibition, EGF Added ([2]; 400 nmol/mg protein): 65%
- EGF Added (pmol 32P incorporated/min/mg protein) ([2]; 400 nmol/mg protein, control 20.2): 7.0 pmol^32 P incorporated/min/mg
- % inhibition, EGF Added ([2]; 477 nmol/mg protein): 72%
- EGF Added (pmol 32P incorporated/min/mg protein) ([2]; 477 nmol/mg protein, control 96.2): 27.4 pmol^32 P incorporated/min/mg
- % inhibition, No EGF Added ([2]; 400 nmol/mg protein): 69%
- No EGF Added (pmol 32P incorporated/min/mg protein) ([2]; 400 nmol/mg protein, control 7.3): 2.3 pmol^32 P incorporated/min/mg
- % inhibition, No EGF Added ([2]; 477 nmol/mg protein): 74%
- No EGF Added (pmol 32P incorporated/min/mg protein) ([2]; 477 nmol/mg protein, control 21.6): 5.6 pmol^32 P incorporated/min/mg
